# Test results as given in patent US7320981B2, “Variolin derivatives as anti-cancer agents” (Pharma Mar, S.A., priority 2000, dated 2008).
# What was measured:
# A-549 = assay: SRB cell growth/viability assay, A-549
# Excerpt: (§1) A colorimetric type of assay, using sulforhodamine B (SRB) reaction has been adapted for a quantitative measurement of cell growth and viability: see Skehan, P. A. et al. J. Natl. Cancer Inst., 1990, 82, 1107-1112. This form of the assay employs 96 well cell culture microplates of 9 mm diameter (Faircloth, G. T.; Stewart, D. and Clement, J. J., Journal of Tissue and Culture Methods, 1983, 11, 201-205; Mosmann, T. Journal of Immunological Methods, 1983, 65, 55-63.).
# (§2) Most of the cell lines are obtained from American Type Culture Collection (ATCC) derived from different human cancer types. Cells are maintained in RPMI 1640 10% FBS, supplemented with 0.1 g/l penicillin and 0.1 g/l streptomycin sulfate and then incubated at 37° C., 5% CO2 and 98% humidity. For the experiments, cells were harvested from subconfluent cultures using trypsin and resuspended in fresh medium before plating.
# (§3) Cells are seeded in 96 well microtiter plates, at 5×10^3 cells per well in aliquots of 195 μl medium, and they are allowed to attach to the plate surface by growing in drug free medium for 18 hours. Afterward, samples are in aliquots of 5 pi in a ranging from 10 to 10-8 μg/ml dissolved in DMSO/EtOH (0.2% in PS buffer). After 48 hours exposure, the antitumour effect are measured by the SRB methodology: cells are fixed by adding 50 μl of cold 50% (w/v) trichloroacetic acid (TCA) and incubating for 60 minutes at 4° C. Plates are washed with deionized water and dried. 100 μl of SRB solution (0.4% w/v in 1% acetic acid) is added to each microtiter well and incubated for 10 minutes at room temperature. Unbound SRB is removed by washing with 1% acetic acid. Plates are air-dried and bound stain is solubilized with Tris buffer. Optical densities are read on an automated spectrophotometric plate reader at a single wavelength of 490 nm.
# (§4) The values for mean +/− SD of data from triplicate wells are calculated Some parameters for cellular responses can be calculated: […], TGI=total growth inhibition (cytostatic effect) and LC=cell killing (cytotoxic effect).
# MEL-28 = assay: SRB cell growth/viability assay, MEL-28
# Excerpt: as §1, §2, §3, §4
# DU-145 = assay: SRB cell growth/viability assay, DU-145
# Excerpt: as §1, §2, §3, §4
# OVCAR-3 = assay: cells; assay type: cell-based; conditions: Table 1, ovary cell line OVCAR-3, 48 hours exposure, SRB
# Excerpt: Plates are washed with deionized water and dried.
# MB-231 = assay: SRB cell growth/viability assay, MB-231
# Excerpt: as §1, §2, §3, §4
# HT-29 = assay: SRB cell growth/viability assay, HT-29
# Excerpt: as §1, §2, §3, §4
# A498 = assay: SRB cell growth/viability assay, A498
# Excerpt: as §1, §2, §3, §4
# SW-620 = assay: SRB cell growth/viability assay, SW-620
# Excerpt: as §1, §2, §3, §4
# MCF-7 = assay: SRB cell growth/viability assay, MCF-7
# Excerpt: as §1, §2, §3, §4
structure (smiles),measurement,setting,value
"CSc1nccc(-c2c3cccnc3n3c(N)nccc23)n1 [Compound 5, thiodeoxyvariolin]",GI50,"A-549; Homo sapiens, A549, 48 h, read-out: GI50 (50% growth inhibition)",1000 nM
same,CC50,"A-549; Homo sapiens, A549, 48 h, read-out: LC50 (50% net cell killing, cytotoxic effect)",10000 nM
same,"TGI (total growth inhibition, cytostatic effect)","A-549; Table 1, NSCL cell line A-549, 48 hours exposure, SRB",3.E−06 M
same,GI50,"MEL-28; Homo sapiens, SK-MEL-28, 48 h, read-out: GI50 (50% growth inhibition)",60 nM
same,CC50,"MEL-28; Homo sapiens, SK-MEL-28, 48 h, read-out: LC50 (50% net cell killing, cytotoxic effect)",6000 nM
same,"TGI (total growth inhibition, cytostatic effect)","MEL-28; Table 1, melanoma cell line MEL-28, 48 hours exposure, SRB",3.E−07 M
same,GI50,"DU-145; Homo sapiens, DU-145, 48 h, read-out: GI50 (50% growth inhibition)",300 nM
same,CC50,"DU-145; Homo sapiens, DU-145, 48 h, read-out: LC50 (50% net cell killing, cytotoxic effect)",3000 nM
same,"TGI (total growth inhibition, cytostatic effect)","DU-145; Table 1, prostate cell line DU-145, 48 hours exposure, SRB",1.E−06 M
same,GI50,"OVCAR-3; Homo sapiens, read-out: GI50 (50% growth inhibition)",1000 nM
same,CC50,"OVCAR-3; Homo sapiens, read-out: LC50 (50% net cell killing, cytotoxic effect)",3000 nM
same,"TGI (total growth inhibition, cytostatic effect)",OVCAR-3,2.E−06 M
same,GI50,"MB-231; Homo sapiens, 48 h, read-out: GI50 (50% growth inhibition)",2000 nM
same,CC50,"MB-231; Homo sapiens, 48 h, read-out: LC50 (50% net cell killing, cytotoxic effect)",10000 nM
same,"TGI (total growth inhibition, cytostatic effect)","MB-231; Table 1, breast cell line MB-231, 48 hours exposure, SRB",6.E−07 M
same,GI50,"HT-29; Homo sapiens, HT-29, 48 h, read-out: GI50 (50% growth inhibition)",600 nM
same,CC50,"HT-29; Homo sapiens, HT-29, 48 h, read-out: LC50 (50% net cell killing, cytotoxic effect)",10000 nM
same,"TGI (total growth inhibition, cytostatic effect)","HT-29; Table 1, colon cell line HT-29, 48 hours exposure, SRB",2.E−06 M
same,GI50,"A498; Homo sapiens, A498, 48 h, read-out: GI50 (50% growth inhibition)",600 nM
same,CC50,"A498; Homo sapiens, A498, 48 h, read-out: LC50 (50% net cell killing, cytotoxic effect)",3000 nM
same,"TGI (total growth inhibition, cytostatic effect)","A498; Table 1, kidney cell line A498, 48 hours exposure, SRB",2.E−06 M
same,GI50,"SW-620; Homo sapiens, SW-620, 48 h, read-out: GI50 (50% growth inhibition)",3000 nM
same,CC50,"SW-620; Homo sapiens, SW-620, 48 h, read-out: LC50 (50% net cell killing, cytotoxic effect)",30000 nM
same,"TGI (total growth inhibition, cytostatic effect)","SW-620; Table 1, colon cell line SW-620, 48 hours exposure, SRB",1.E−05 M
same,GI50,"MCF-7; Homo sapiens, MCF7, 48 h, read-out: GI50 (50% growth inhibition)",2000 nM
same,CC50,"MCF-7; Homo sapiens, MCF7, 48 h, read-out: LC50 (50% net cell killing, cytotoxic effect)",30000 nM
same,"TGI (total growth inhibition, cytostatic effect)","MCF-7; Table 1, breast cell line MCF-7, 48 hours exposure, SRB",6.E−06 M
